Data published in US8110687B2, “Bicyclic compounds with kinase inhibitory activity” (Millennium Pharmaceuticals, Inc., priority 2005, dated 2012).

Tested on: phospho-ERK formation (Raf kinase activity) in A375 cells
Assay: Phospho-ERK ELISA assay
Type: cell-based
Conditions: Homo sapiens, A-375, 3 h, 3 hours with inhibitor, read-out: IC50, inhibition of the formation of phospho-ERK
Description: Inhibition of Raf kinase activity in whole cell systems can be assessed by determining the decrease in phosphorylation of Raf kinase substrates. Any known Raf kinase substrate can be used to measure inhibition of Raf kinase activity in a whole cell system.
Medium was removed, and cells were incubated with Raf kinase inhibitors for 3 hours at 37° C. Medium was removed, and cells were fixed with 4% paraformaldehyde for 15 minutes at room temperature.
Methanol was added for 15 min. Cells were removed and blocked with 10% sheep serum and 1% BSA in PBS overnight at 4° C. Cells were incubated with anti-p44/42MAPK antibody (1:100, Cell Signaling Technologies, #9101L) (20 μL/well) for one hour at room temperature. After washing with PBS three times, cells were stained with anti-rabbit horseradish peroxidase-linked antibody from donkey (1:100, Amersham Bioscience #NA934V) for 1 hour at room temperature. Cells were washed three times with 0.5% Tween-20 in PBS and twice with PBS. 3,3′, 5,5′-Tetramethylbenzidine (TMB) liquid substrate system (Sigma, #T8665) (50 μL/well) was added, and cells were incubated for 30-45 minutes at room temperature. Optical density was read at 650 nm. Cells were then washed 3-5 times with PBS to remove color solution. Results were normalized for the protein content in each well using a BCA protein assay kit (Pierce).

Compound | IC50
CN1Cc2ccc(Oc3ccnc(C4=NCCN4)c3)cc2CC1C(=O)Nc1ccc(Cl)c(C(F)(F)F)c1 (centres unmarked) [Compound I-11, N-[4-Chloro-3-(trifluoromethyl)phenyl]-6-{[2-(4,5-dihydro-1H-imidazol-2-yl)pyridin-4-yl]oxy}-2-methyl-1,2,3,4-tetrahydroisoquinoline-3-carboxamide] | ≤ 25 µM
O=C(Nc1ccc(Cl)c(C(F)(F)F)c1)C1CCc2cccc(Oc3ccnc(C4=NCCN4)c3)c2C1 (centres unmarked) [Compound I-21, N-[4-chloro-3-(trifluoromethyl)phenyl]-8-{[2-(4,5-dihydro-1H-imidazol-2-yl)pyridin-4-yl]oxy}-1,2,3,4-tetrahydronaphthalene-2-carboxamide] | ≤ 25 µM
CNC(=O)c1cc(Oc2ccc3c(c2)CC(C(=O)Nc2cccc(C(C)(C)C)c2)CC3)ccn1 (centres unmarked) [Compound I-23, 4-[(7-{[(3-tert-butylphenyl)amino]carbonyl}-5,6,7,8-tetrahydronaphthalen-2-yl)oxy]-N-methylpyridine-2-carboxamide] | ≤ 25 µM
CNC(=O)c1cc(Oc2ccc3c(c2)CC(C(=O)Nc2ccc(CN)c(C(F)(F)F)c2)CC3)ccn1 (centres unmarked) [Compound I-28, 4-{[7-({[4-(aminomethyl)-3-(trifluoromethyl)phenyl]amino}carbonyl)-5,6,7,8-tetrahydronaphthalen-2-yl]oxy}-N-methylpyridine-2-carboxamide] | ≤ 25 µM
CNC(=O)c1cc(Oc2ccc3c(c2)CC(C(=O)Nc2ccc(CCN)cc2)CC3)ccn1 (centres unmarked) [Compound I-29, 4-{[7-({[4-(2-aminoethyl)phenyl]amino}carbonyl)-5,6,7,8-tetrahydronaphthalen-2-yl]oxy}-N-methylpyridine-2-carboxamide] | ≤ 25 µM
O=C(Nc1ccc(Cl)c(C(F)(F)F)c1)c1cc2cc(Oc3ccnc(C4=NCCN4)c3)ccc2cn1 [Compound I-35, N-[4-chloro-3-(trifluoromethyl)phenyl]-6-{[2-(4,5-dihydro-1H-imidazol-2-yl)pyridin-4-yl]oxy}isoquinoline-3-carboxamide] | ≤ 25 µM
CNC(=O)c1cc(Oc2ccc3c(c2)CC(C(=O)Nc2ccc(CN)cc2)CC3)ccn1 (centres unmarked) [Compound I-42, 4-{[7-({[4-(aminomethyl)phenyl]amino}carbonyl)-5,6,7,8-tetrahydronaphthalen-2-yl]oxy}-N-methylpyridine-2-carboxamide] | ≤ 25 µM
O=C(Nc1ccc(Cl)c(C(F)(F)F)c1)c1ccc2ccc(Oc3ccnc(C4=NCCN4)c3)cc2n1 [Compound I-45, N-[4-chloro-3-(trifluoromethyl)phenyl]-7-{[2-(4,5-dihydro-1H-imidazol-2-yl)pyridin-4-yl]oxy}quinoline-2-carboxamide] | ≤ 25 µM
O=C(Nc1ccc(Cl)c(C(F)(F)F)c1)c1ccc2ccc(Oc3ccnc(C4=NCCN4)c3)cc2c1 [Compound I-46, N-[4-chloro-3-(trifluoromethyl)phenyl]-7-{[2-(4,5-dihydro-1H-imidazol-2-yl)pyridin-4-yl]oxy}-2-naphthamide] | ≤ 25 µM
O=C(Nc1cc(OC2CCNCC2)cc(C(F)(F)F)c1)c1ccc2ccc(Oc3ccnc(C4=NCCN4)c3)cc2c1 [Compound I-48, 7-{[2-(4,5-dihydro-1H-imidazol-2-yl)pyridin-4-yl]oxy}-N-[3-(piperidin-4-yloxy)-5-(trifluoromethyl)phenyl]-2-naphthamide] | ≤ 25 µM
CC(C)(C)c1cccc(NC(=O)c2ccc3ccc(Oc4ccnc(C5=NCCN5)c4)cc3n2)c1 [Compound I-50, N-(3-tert-butylphenyl)-7-{[2-(4,5-dihydro-1H-imidazol-2-yl)pyridin-4-yl]oxy}quinoline-2-carboxamide] | ≤ 25 µM
CNC(=O)c1cc(Oc2ccc3c(c2)CC(C(=O)Nc2cccc(CN)c2)CC3)ccn1 (centres unmarked) [Compound I-51, 4-{[7-({[3-(aminomethyl)phenyl]amino}carbonyl)-5,6,7,8-tetrahydronaphthalen-2-yl]oxy}-N-methylpyridine-2-carboxamide] | ≤ 25 µM
O=C(Nc1ccc(Cl)c(C(F)(F)F)c1)C1Cc2cc(Oc3ccnc(C4=NCCN4)c3)ccc2CN1 (centres unmarked) [Compound I-54, N-[4-chloro-3-(trifluoromethyl)phenyl]-6-{[2-(4,5-dihydro-1H-imidazol-2-yl)pyridin-4-yl]oxy}-1,2,3,4-tetrahydroisoquinoline-3-carboxamide] | ≤ 25 µM
CC(C)(C)c1cccc(NC(=O)c2ccc3ccc(Oc4ccnc(C(=N)N5CCCC5)c4)cc3c2)c1 [Compound I-93, N-(3-tert-butylphenyl)-7-({2-[imino(pyrrolidin-1-yl)methyl]pyridin-4-yl}oxy)-2-naphthamide] | ≤ 25 µM
CC(C)(C)c1cccc(NC(=O)c2ccc3ccc(Oc4ccnc(C(=N)N5CCOCC5)c4)cc3c2)c1 [Compound I-99, N-(3-tert-butylphenyl)-7-({2-[imino(morpholin-4-yl)methyl]pyridin-4-yl}oxy)-2-naphthamide] | ≤ 25 µM
CNC(=O)c1cc(Oc2ccc3c(c2)CC(C(=O)Nc2ccc(CN4CCCC4)c(C(F)(F)F)c2)CC3)ccn1 (centres unmarked) [Compound I-129, N-methyl-4-{[7-({[4-(pyrrolidin-1-ylmethyl)-3-(trifluoromethyl)phenyl]amino}carbonyl)-5,6,7,8-tetrahydronaphthalen-2-yl]oxy}pyridine-2-carboxamide] | ≤ 25 µM
CN(C)CC(=O)Nc1cc(Oc2ccc3ccc(C(=O)Nc4ccc(Cl)c(C(F)(F)F)c4)cc3c2)ccn1 [Compound I-138, N-[4-chloro-3-(trifluoromethyl)phenyl]-7-[(2-{[(dimethylamino)acetyl]amino}pyridin-4-yl)oxy]-2-naphthamide] | ≤ 25 µM
Nc1cc(Oc2ccc3ccc(C(=O)Nc4cc(OCCN5CCCC5)cc(C(F)(F)F)c4)cc3c2)ccn1 [Compound I-142, 7-[(2-aminopyridin-4-yl)oxy]-N-[3-(2-pyrrolidin-1-ylethoxy)-5-(trifluoromethyl)phenyl]-2-naphthamide] | ≤ 25 µM
CC(C)(C)c1cccc(NC(=O)C2CCc3ccc(Oc4ccnc(-c5nc(C(=O)O)c[nH]5)c4)cc3C2)c1 (centres unmarked) [Compound I-155, 2-{4-[(7-{[(3-tert-Butylphenyl)amino]carbonyl}-5,6,7,8-tetrahydronaphthalen-2-yl)oxy]pyridin-2-yl}-1H-imidazole-4-carboxylic acid] | ≤ 25 µM
N#Cc1ccc(NC(=O)c2ccc3ccc(Oc4ccnc(N)c4)cc3c2)cc1C(F)(F)F [Compound I-158, 7-[(2-aminopyridin-4-yl)oxy]-N-[4-cyano-3-(trifluoromethyl)phenyl]-2-naphthamide] | ≤ 25 µM
CNC(=O)c1cc(Oc2ccc3ncc(C(=O)Nc4ccc(CN)c(C(F)(F)F)c4)cc3c2)ccn1 [Compound I-161, N-[4-(aminomethyl)-3-(trifluoromethyl)phenyl]-6-({2-[(methylamino)carbonyl]pyridin-4-yl}oxy)quinoline-3-carboxamide] | ≤ 25 µM
Nc1cc(Oc2ccc3ccc(C(=O)Nc4ccc(Cl)c(C(F)(F)F)c4)cc3c2)ccn1 [Compound I-162, 7-[(2-aminopyridin-4-yl)oxy]-N-[4-chloro-3-(trifluoromethyl)phenyl]-2-naphthamide] | ≤ 25 µM
COC(=O)NCc1cc(Oc2ccc3c(c2)CC(C(=O)Nc2cc(CN)cc(C(F)(F)F)c2)CC3)ccn1 (centres unmarked) [Compound I-192, methyl [(4-{[7-({[3-(aminomethyl)-5-(trifluoromethyl)phenyl]amino}carbonyl)-5,6,7,8-tetrahydronaphthalen-2-yl]oxy}pyridin-2-yl)methyl]carbamate] | ≤ 25 µM
CC(C)(C)c1cccc(NC(=O)C2CCc3ccc(Oc4ccnc(C(=N)N5CCCC5)c4)cc3C2)c1 (centres unmarked) [Compound I-194, N-(3-tert-butylphenyl)-7-({2-[imino(pyrrolidin-1-yl)methyl]pyridin-4-yl}oxy)-1,2,3,4-tetraydronaphthalene-2-carboxamide] | ≤ 25 µM
CC(=O)NCc1cc(Oc2ccc3c(c2)CC(C(=O)Nc2cc(CN)cc(C(F)(F)F)c2)CC3)ccn1 (centres unmarked) [Compound I-203, 7-({2-[(acetylamino)methyl]pyridin-4-yl}oxy)-N-[3-(aminomethyl)-5-(trifluoromethyl)phenyl]-1,2,3,4-tetrahydronaphthalene-2-carboxamide] | ≤ 25 µM
NCc1cc(NC(=O)C2CCc3ccc(Oc4ccnc(-n5ccnc5)c4)cc3C2)cc(C(F)(F)F)c1 (centres unmarked) [Compound I-205, N-[3-(aminomethyl)-5-(trifluoromethyl)phenyl]-7-{[2-(1H-imidazol-1-yl)pyridin-4-yl]oxy}-1,2,3,4-tetrahydronaphthalene-2-carboxamide] | ≤ 25 µM
NCc1cc(NC(=O)C2CCc3ccc(Oc4ccnc(-c5cnco5)c4)cc3C2)cc(C(F)(F)F)c1 (centres unmarked) [Compound I-210, N-[3-(aminomethyl)-5-(trifluoromethyl)phenyl]-7-{[2-(1,3-oxazol-5-yl)pyridin-4-yl]oxy}-1,2,3,4-tetrahydronaphthalene-2-carboxamide] | ≤ 25 µM
CC(C)NC(=O)c1cc(Oc2ccc3c(c2)CC(C(=O)Nc2cc(CN)cc(C(F)(F)F)c2)CC3)ccn1 (centres unmarked) [Compound I-229, 4-{[7-({[3-(aminomethyl)-5-(trifluoromethyl)phenyl]amino}carbonyl)-5,6,7,8-tetrahydronaphthalen-2-yl]oxy}-N-isopropylpyridine-2-carboxamide] | ≤ 25 µM
CC(C)(C)c1cccc(NC(=O)C2CCc3ccc(Oc4ccnc(N)c4)cc3C2)c1 (centres unmarked) [Compound I-235, 7-[(2-aminopyridin-4-yl)oxy]-N-(3-tert-butylphenyl)-1,2,3,4-tetrahydronaphthalene-2-carboxamide] | ≤ 25 µM
